For assay [1], the system named is Str.pn.R (strain 00-041-0614). The assay can be described thus: Sensitivity of strain to known antibiotics. The format is cell-based, Streptococcus. To be noted: sensitive / resistant. Here is the method:
This embodiment illustrates the efficacy of the compounds of the present invention against Streptococcus strains. One of the strains, Str.pn.R was obtained from the Children's Hospital in Buffalo (strain 00-041-0614). […] The sensitivity of this strain was tested against several known antibiotics.

Assay [2] deals with staphylococcus species R (strain 00-045-1209). The assay can be described thus: Sensitivity of strain to known antibiotics. The format is cell-based. The conditions noted are these: sensitive / resistant. How it is done:
This embodiment describes the sensitivity of various staphylococcus strains to the compounds of the present invention. The staphylococcus species R is a strain 00-045-1209 from the Children's Hospital in Buffalo. It was isolated from the peritoneal cavity (fluid culture) of an individual. It was coagulase negative. The sensitivity of this strain was tested agaisnt several known antibiotics.

For the compound `CN[C@H](CC(C)C)C(=O)N[C@H]1C(=O)N[C@@H](CC(N)=O)C(=O)N[C@H]2C(=O)N[C@H]3C(=O)N[C@H](C(=O)N[C@H](C(=O)O)c4cc(O)cc(O)c4-c4cc3ccc4O)[C@H](O)c3ccc(c(Cl)c3)Oc3cc2cc(c3O[C@@H]2O[C@H](CO)[C@@H](O)[C@H](O)[C@H]2O[C@H]2C[C@](C)(N)[C@H](O)[C@H](C)O2)Oc2ccc(cc2Cl)[C@H]1O` [Vancomycin], the “sensitivity of strain Str.pn.R to known antibiotics” value in assay [1] was “sensitive”. Besides, the “sensitivity of staphylococcus species R to known antibiotics” value in assay [2] is listed as “sensitive”.

On to `CC[C@H]1OC(=O)[C@H](C)[C@@H](O[C@H]2C[C@@](C)(OC)[C@@H](O)[C@H](C)O2)[C@H](C)[C@@H](O[C@@H]2O[C@H](C)C[C@H](N(C)C)[C@H]2O)[C@](C)(O)C[C@@H](C)C(=O)[C@H](C)[C@@H](O)[C@]1(C)O` [erythromycin], for which, in assay [1], the “sensitivity of strain Str.pn.R to known antibiotics” value is recorded as “resistant”. Besides, in assay [2], the “sensitivity of staphylococcus species R to known antibiotics” value is “resistant”.

The values are drawn from patent publication US6407288B1, “Naphthylsalicylanilides as antimicrobial and antiinflammatory agents” (The Research Foundation of State University of New York, priority 2000, dated 2002).
